Results published in US10856562B2, “Flavor composition and edible compositions containing same” (MARS, INCORPORATED, priority 2013, dated 2020).
Square brackets hold non-standard residues; d marks the D form. Ends that are not written are not given here. pGlu = O=C1CC[C@@H](C(=O)O)N1

Tested on: panelists
Experiment: Attribute perception scores of flavor enhancers in solution (Example 6)
Type: in vivo, human
Set-up: key to Metallic / Numbing / Atringent / Salt / Sweet / Sour / Bitter / Umami / Sour, mean evaluation score in solution / Numbing, mean evaluation score in solution / Astringent / Umami FF: 15-point intensity scale, 0 = none, 15 = very strong
Conditions: for Astringent / Bitter / Flinty/Mineral / Metallic / Numbing / Salt / Sour / Sweet / Umami / Umami FF / Atringent / Mineral/Flinty / Umami/brothy: solution
Procedure: Descriptive attributes (e.g., taste, flavor and chemical feeling factors) of three use levels of pGlu-Cys (FE-35), pGlu-Cys-Gly (FE-36), pGlu-Cys-Cys (FE-37), pGlu-Cys-Val (FE-38) and pGlu-Val-Cys (UE-30) flavor composition peptides were determined. The three use levels were as follows: 1.0 ppb, 10.0 ppb and 100.0 ppb.
Data was collected for the attributes of the product in-mouth for the use levels according to the following protocol: • The samples were analyzed for flavor by six to nine members of a panel, trained and experienced in flavor evaluation using the Spectrum™ method. Samples were evaluated across multiple panel sessions. • The strength of each attribute was rated on a 15-point scale, where 0=none and 15=very strong. • This scale incorporates the ability to use tenths of a point and therefore has the potential of 150 scale differentiations. • The scale may be expanded beyond 15 points to include extreme ratings if necessary.
A summary of the concentrations of NaCl, water and flavor composition peptides in the solution samples is described in table 24.
The panelists evaluated each sample for the attributes described by table 25.

[1] = 1.0 to 100 ppb, listed as FE 38
[2] = 10.0 ppb, mean evaluation score
[3] = 100.0 ppb, mean evaluation score
[4] = Concentration 1, MAX, 15-point scale
[5] = Concentration 1, MEAN, 15-point scale
[6] = Concentration 1, MIN, 15-point scale
[7] = Concentration 10, MAX, 15-point scale
[8] = Concentration 10, MEAN, 15-point scale
[9] = Concentration 10, MIN, 15-point scale
[10] = Concentration 100, MAX, 15-point scale
[11] = Concentration 100, MEAN, 15-point scale
[12] = Concentration 100, MIN, 15-point scale

With [pGlu]-Cys-Val [FE-38] the “Mineral/Flinty aromatic in solution as the concentration increases” value (1.0 to 100 ppb) was “increases very slightly”, the “Salt perception level in solution as the concentration increases” value (1.0 to 100 ppb) was “increase very slightly in-mouth at 10 ppb” and the “Umami aromatic in solution as the concentration increases” value (1.0 to 100 ppb) was “increase very slightly in-mouth at 10 ppb”. For the same substance, the “Umami feeling factor in solution as the concentration increases” value (1.0 to 100 ppb) was “shows no distinct pattern”, the “Mineral/Flinty aromatic in solution as the concentration increases” value [1] was “increase very slightly” and the “Salt perception level in solution as the concentration increases” value [1] was “increase very slightly”. The “Umami aromatic in solution as the concentration increases” value [1] was “increase very slightly”, the Astringent (1.0 ppb, mean evaluation score) was 0.0 and the Bitter (1.0 ppb, mean evaluation score) was 0.0. The Flinty/Mineral (1.0 ppb, mean evaluation score) was 1.0, the Metallic (1.0 ppb, mean evaluation score) was 0.0 and the Numbing (1.0 ppb, mean evaluation score) was 0.0. For the same substance, the Salt (1.0 ppb, mean evaluation score) was 3.1, the Sour (1.0 ppb, mean evaluation score) was 0.0 and the Sweet (1.0 ppb, mean evaluation score) was 0.0. For the same substance, the Umami (1.0 ppb, mean evaluation score) was 0.2, the “Umami FF” value (1.0 ppb, mean evaluation score) was 0.7 and the Astringent [2] was 0.0. For the same substance, the Bitter [2] was 0.2, the Flinty/Mineral [2] was 1.1 and the Metallic [2] was 0.0. It also gave a Numbing [2] of 0.0, a Salt [2] of 3.7 and a Sour [2] of 0.0. The Sweet [2] was 0.2, the Umami [2] was 0.5 and the “Umami FF” value [2] was 1.8. For the same substance, the Astringent [3] was 0.0, the Bitter [3] was 0.2 and the Flinty/Mineral [3] was 1.3. For the same substance, the Metallic [3] was 0.0, the Numbing [3] was 0.0 and the Salt [3] was 3.7. The Sour [3] was 0.0, the Sweet [3] was 0.2 and the Umami [3] was 0.5. For the same substance, the “Umami FF” value [3] was 1.7, the Atringent [4] was 0.0 and the Bitter [4] was 0.0. For the same substance, the Metallic [4] was 0.0, the Mineral/Flinty [4] was 1.5 and the Numbing [4] was 0.0. The Salt [4] was 3.5, the Sour [4] was 0.0 and the Sweet [4] was 0.0. It also gave a Umami [4] of 1.0, a Umami/brothy [4] of 1.0 and an Atringent [5] of 0.0. The Bitter [5] was 0.0, the Metallic [5] was 0.0 and the Mineral/Flinty [5] was 1.0. It also gave a Numbing [5] of 0.0, a Salt [5] of 3.1 and a Sour [5] of 0.0. The Sweet [5] was 0.0, the Umami [5] was 0.7 and the Umami/brothy [5] was 0.2. For the same substance, the Atringent [6] was 0.0, the Bitter [6] was 0.0 and the Metallic [6] was 0.0. The Mineral/Flinty [6] was 0.5, the Numbing [6] was 0.0 and the Salt [6] was 2.8. The Sour [6] was 0.0, the Sweet [6] was 0.0 and the Umami [6] was 0.0. It also gave a Umami/brothy [6] of 0.0, an Atringent [7] of 0.0 and a Bitter [7] of 0.8. For the same substance, the Metallic [7] was 0.0, the Mineral/Flinty [7] was 1.5 and the Numbing [7] was 0.0. For the same substance, the Salt [7] was 4.0, the Sour [7] was 0.0 and the Sweet [7] was 1.0. The Umami [7] was 3.0, the Umami/brothy [7] was 1.0 and the Atringent [8] was 0.0. For the same substance, the Bitter [8] was 0.2, the Metallic [8] was 0.0 and the Mineral/Flinty [8] was 1.1. The Numbing [8] was 0.0, the Salt [8] was 3.7 and the Sour [8] was 0.0. It also gave a Sweet [8] of 0.2, a Umami [8] of 1.8 and a Umami/brothy [8] of 0.5. It also gave an Atringent [9] of 0.0, a Bitter [9] of 0.0 and a Metallic [9] of 0.0. It also gave a Mineral/Flinty [9] of 0.8, a Numbing [9] of 0.0 and a Salt [9] of 3.0. It also gave a Sour [9] of 0.0, a Sweet [9] of 0.0 and a Umami [9] of 0.0. The Umami/brothy [9] was 0.0, the Atringent [10] was 0.0 and the Bitter [10] was 0.8. For the same substance, the Metallic [10] was 0.0, the Mineral/Flinty [10] was 1.5 and the Numbing [10] was 0.0. The Salt [10] was 4.0, the Sour [10] was 0.0 and the Sweet [10] was 1.0. The Umami [10] was 3.8, the Umami/brothy [10] was 1.0 and the Atringent [11] was 0.0. The Bitter [11] was 0.2, the Metallic [11] was 0.0 and the Mineral/Flinty [11] was 1.3. The Numbing [11] was 0.0, the Salt [11] was 3.7 and the Sour [11] was 0.0. The Sweet [11] was 0.2, the Umami [11] was 1.7 and the Umami/brothy [11] was 0.5. The Atringent [12] was 0.0, the Bitter [12] was 0.0 and the Metallic [12] was 0.0. The Mineral/Flinty [12] was 0.8, the Numbing [12] was 0.0 and the Salt [12] was 3.5. For the same substance, the Sour [12] was 0.0, the Sweet [12] was 0.0 and the Umami [12] was 0.5. The Umami/brothy [12] was 0.0.
